Data on 1 compound can be found in PMC2902621 (Archives of biochemistry and biophysics, 2010).

The experiment deals with cytochrome c peroxidase (CcP) (Saccharomyces cerevisiae, UniProt P00431, R115A/T120I/D219G/W258F). The experiment can be described thus: UV-visible optical titration of ferric enzyme. It counts as binding.

pKd: −log10 of the molar value.

Chain of cytochrome c peroxidase (CcP) (P00431 68-361 R115A/T120I/D219G/W258F): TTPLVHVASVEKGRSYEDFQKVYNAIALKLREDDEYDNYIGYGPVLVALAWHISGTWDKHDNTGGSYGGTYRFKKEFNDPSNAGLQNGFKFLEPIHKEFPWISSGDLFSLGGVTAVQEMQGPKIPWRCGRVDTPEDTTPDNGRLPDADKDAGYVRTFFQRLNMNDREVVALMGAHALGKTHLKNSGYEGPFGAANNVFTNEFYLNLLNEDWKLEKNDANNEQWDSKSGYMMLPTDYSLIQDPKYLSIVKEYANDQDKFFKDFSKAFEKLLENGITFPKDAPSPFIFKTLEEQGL

As for `N=C(N)NO` [NHG, N-hydroxyguanidine], the pKd was 2.47.

By pKd is commonly meant −log10 of the Kd, conventionally taken in molar units.
